Key:
[1] = tested on: RD cells; assay: Cell viability assay (alamarBlue); type: cell-based, human; conditions: 10 µM, 12 h
Method: (§1) Firstly, we performed cell viability assay to evaluate the cytotoxicity profile of the 19 hits. Cells seeded overnight were treated with the hit compounds at 10 µM. […] Anti-EV-A71 activity of AGP-253 had been illustrated and discussed previously. We were particularly interested in ZAF-46 and ZAF-47 as they belonged to the same series bearing novel 14-quinolinoxy and 17-hydro-8,9-olefin modifications (Figure 2b) that could potentially open up new targets for EV-A71 therapeutics. Additional cell viability assays were performed for ZAF-46 and ZAF-47 at different concentrations to identify the low cytotoxic concentrations for downstream post-treatment assays. For post-treatment assays, cells seeded overnight were infected with EV-A71 and subsequently treated with ZAF-46 and ZAF-47 at different concentrations. […] Treatment with ZAF-46 led to 1.4 log reduction at 10 µM and 2.4 log reduction at 20 µM (Figure 2c) while treatment with ZAF-47 led to 0.8 log reduction at 5 µM, 1.1 log reduction at 10 µM and 2.1 log reduction at 20 µM (Figure 2d). CC50 and IC50 for both compounds were determined and used to derive their SI (Table 2). ZAF-47 was selected for further downstream analysis due to its higher SI value which indicate higher pharmacological value for clinical use.
(§2) To determine the cytotoxicity profiles of the hits, cell viability assay was performed. Seeded 96-well plates, with 2 × 10^4 RD cells per well, were incubated overnight at 37 °C with 5% CO2. Different concentrations of drug hits, diluted by reduced serum DMEM, were used to treat the seeded cells for 12 h at 37 °C with 5% CO2. Reduced serum DMEM, was employed as the negative control and 0.1% DMSO as the vehicle control for this step. Subsequently, the supernatant was replaced with alamarBlue^TM Cell Viability Reagent (Thermo Fisher Scientific, Waltham, MA, USA) (100 µL), diluted 10-fold in reduced serum DMEM, and incubated for 3 h at 37 °C with 5% CO2. Fluorescence intensity in each well was measured at 570 nm excitation wavelength and 600 nm emission wavelength in each well by the Infinite^TM 200 series microplate reader (Tecan, Männedorf, Switzerland) and normaliszd with the negative control to determine the relative cell viability.

[2] = Cell viability assay (alamarBlue); type: cell-based, human; conditions: human, RD cells
Method: as §1, §2

[3] = tested on: replication-competent EV-A71 RNA replicon; assay: Nano-luciferase reporter assay, replication-competent replicon; type: cell-based, human enterovirus A71 (EV-A71); conditions: RD cells, 12 h; ZAF-47 different concentrations, GuHCl 1 mM
Method: To identify specifically which of these two intrinsically linked processes that ZAF-47 inhibits, we transfected RD cells with EV-A71 RNA replicons that were either replication-competent or replication-defective and subsequently treated them with different concentrations of ZAF-47 for 12 h before detecting for luminescence. Both forms of replicons were previously established and validated. The replication-competent replicon is capable of self-replicating as it contains an intact 3D region that encodes for 3D polymerase (3D^pol) responsible for RNA replication (Figure 4c). […] In contrast, the replication-defective replicon contains a 3D region with 159 nucleotide deletion which would produce a non-functional 3D protein and impair RNA replication (Figure 4c). As such, cells containing the replication-defective replicon express luciferase upon IRES translation of the original replicons only. The transfected cells were also treated with negative control, DMSO and positive controls, guanidine hydrochloride (GuHCl) and cycloheximide (CHX), a RNA replication-specific inhibitor [50] and a general translation inhibitor [51] respectively.
Seeded 96-well plates, with 2 × 10^4 RD cells per well, were incubated overnight at 37 °C with 5% CO2. […]

[4] = tested on: EV-A71 Passage 21; assay: Post-treatment assay on EV-A71 passaged 21 times with ZAF-47 (resistant mutant generation); type: cell-based, human enterovirus A71 (EV-A71); conditions: supernatant from Passage 21, MOI = 1, RD cells
Method: Unfortunately, we were unable to obtain any resistant mutants as the viral titre for ZAF-47-treated remained lower than that of the controls at Passage 21. […] As a result, we hypothesize that ZAF-47 possibly targets host factor/s associated with EV-A71 RNA replication which makes it harder to generate resistant mutants.
Seeded 24-well plates, with 1.5 × 10^5 RD cells per well, were incubated overnight at 37 °C with 5% CO2. After which, the cells were subjected to EV-A71 infection (200 µL per well, MOI = 1) for 1 h before treatment with 800 µL of ZAF-47 at final concentration of 10 µM for 12 h at 37 °C with 5% CO2. Treatment with reduced serum DMEM and 0.1% DMSO functioned as negative and vehicle controls respectively. Upon 12 hpi, the supernatant was collected for viral plaque assay as well as to infect (200 µL) another seeded plate.

[5] = tested on: EV-A71 IRES; assay: Bicistronic luciferase reporter assay; type: cell-based, human enterovirus A71 (EV-A71) strain 41; conditions: RD cells, various concentrations, 12 h
Method: To validate this finding, we also transfected RD cells with a bicistronic reporter construct which had been established and validated previously. Similarly, the transfected cells were treated with ZAF-47 at various concentrations and then incubated for 12 h before luminescence detection. The construct comprises a human cytomegalovirus (CMV) promoter with a downstream Renilla luciferase (R Luc) gene and an EV-A71 strain 41 IRES with a downstream firefly luciferase (F Luc) gene (Figure 4f). This means that R Luc can be expressed by the CMV promoter via cap-dependent translation while F Luc can be expressed by the EV-A71 IRES via cap-independent translation. An accurate determination of IRES activity would be to use the ratio of F Luc luminescence reading to R Luc luminescence reading (F Luc/R Luc). The transfected cells were also treated with negative control, DMSO and positive control, apigenin, an EV-A71 IRES inhibitor [53].
Seeded 96-well white plates (Corning), with 2 × 10^4 RD cells per well, were incubated overnight at 37 °C with 5% CO2. After which, a bicstronic luciferase reporter construct was used to transfect the cells, as described in our previous work, for 12 h at 37 °C with 5% CO2. […]

CC(=O)OC[C@]1(C)C(=O)CC[C@@]2(C)C(C/C=C3/C(=O)OC[C@@H]3Oc3cccc4cccnc34)=C(C)CC[C@@H]21 [ZAF-47, (14β)-(8′-Quinolinoxy)-3-ketone-9-dehydro-17-hydro-19-acetoxy–andrographolide]
cytotoxicity [1]: low cytotoxicity | CC50 at 12 h [2]: 29.6 µM | luminescence, replication-competent replicon [3]: significant decrease in luminescence in a dose-dependent manner | inhibition of passaged virus [4]: still capable of inhibiting the passaged virus dose-dependently | IRES activity (F Luc/R Luc) [5]: did not reduce IRES activity
